Among the data in patent US20230146395A1, “Substituted Pyrimidines and Uses Thereof” (Verge Analytics, Inc., priority 2020, published 2023) are IC50 and EC50 values, retold here.

The target in assay [1] is T1, Full length human recombinant PIKFYVE (Homo sapiens, UniProt Q9Y2I7).
T1 construct: Full length human recombinant PIKFYVE; purchased Carna Biosciences (Kobe, Japan); host or cells: baculovirus expression system
The assay is described as follows: Inhibition of PIKfyve (microfluidic electrophoresis kinase assay, PI3P/PS substrate). The class given is biochemical. Conditions: 12 concentrations. A digest of the protocol: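 Percent inhibition, from 12 concentrations, was derived from the product/(substrate+product) peak ratio separated by microfluidic electrophoresis, normalized to DMSO-only and enzyme-free controls. Reactions ran 3 h at room temperature: 2 nM N-terminal GST-PIKFYVE, 1 μM fluorescent PI3P in PS vesicles, […], HEPES pH 7.5, MgCl2/MnCl2.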

The subject of assay [2] is HEK 293T transfected with plasmids containing TDP-43 Q331K mutation. The assay can be described thus: HEK/TDP Survival assay (Cell-Titer-Glo, 48 hrs, maximal effect of rescue). The class given is cell-based. Conditions: Homo sapiens, HEK 293T with TDP-43 Q331K, (n) in brackets. The method, then: HEK/TDP Survival assay: Immortalized human embryonic kidney 293T (HEK 293T) were transfected with plasmids containing TDP-43 Q331K mutation, resulting in an increase in cell death that is biologically relevant to ALS patients. Cell death is measured as reductions in the amount of ATP, an indicator of metabolically active cells, that is quantified by a luminescence Cell-Titer-Glo® (CTG) reagent. Compounds are evaluated in this model for changes in CTG compared to a no treatment group. Increased signal indicates improved survival (rescue) and decreased signal indicates decreased survival.
Cell rescue was measured in a 96-well format with eight different concentrations of the test compound over 48 hours (hrs) with 6 replicates. The Promega Cell-Titer-Glo® Luminescent Cell Viability Assay was used to quantify ATP, an indicator of metabolically active cells (see protocol: https://www.promega.com/-/media/files/resources/protocols/technical-manuals/101/celltiterglo-2-0-assay-protocol.pdf?la=en). The luminescence signal was detected using the PerkinElmer EnVision or Molecular Devices SpectraMax.
The effect of a compound at a given dose on cell viability was determined using a three step procedure. First, Hedge's g for the Cell Titer-Glo luminescence values using six untreated wells on every plate as a control was calculated. […] Finally, values from all compound-dose pairs were corrected for multiple hypothesis testing using the Empirical Bayes framework of Stephens, M. (False discovery rates: a new deal, Biostatistics, 18 [2], 2017, 275-294) yielding credible intervals for the measured effect and associated s values.
Briefly, this method computes a local false sign rate for each experiment. Analogous to the local false discovery rate of Efron, B. (Size, power and false discovery rates, Ann. Statist. 35 [4], 2007, 1351-1377) this value measures the confidence in the sign of each effect (rather than confidence in each effect being non-zero). The s values reported in the previous figures are the expected fraction of errors if estimating the sign of all effects with greater absolute local false sign rate, defined in analogy to the q value of Storey, JD (The positive false discovery rate: a Bayesian interpretation and the q-value, Ann. Statist. 31 [6] 2003, 2013-2035).
Drugs that yielded signed log s values greater than 3 were considered hits. This threshold was determined by a separate calibration experiment in which Cell Titer-Glo® was measured in blank plates consisting of untreated cells to assess the noise inherent in the assay. Data are presented as the maximal effect of rescue obtained from the dose-response curve.

Counter-ions that a name gives are not always drawn.

T1 sequence (Q9Y2I7 whole entry): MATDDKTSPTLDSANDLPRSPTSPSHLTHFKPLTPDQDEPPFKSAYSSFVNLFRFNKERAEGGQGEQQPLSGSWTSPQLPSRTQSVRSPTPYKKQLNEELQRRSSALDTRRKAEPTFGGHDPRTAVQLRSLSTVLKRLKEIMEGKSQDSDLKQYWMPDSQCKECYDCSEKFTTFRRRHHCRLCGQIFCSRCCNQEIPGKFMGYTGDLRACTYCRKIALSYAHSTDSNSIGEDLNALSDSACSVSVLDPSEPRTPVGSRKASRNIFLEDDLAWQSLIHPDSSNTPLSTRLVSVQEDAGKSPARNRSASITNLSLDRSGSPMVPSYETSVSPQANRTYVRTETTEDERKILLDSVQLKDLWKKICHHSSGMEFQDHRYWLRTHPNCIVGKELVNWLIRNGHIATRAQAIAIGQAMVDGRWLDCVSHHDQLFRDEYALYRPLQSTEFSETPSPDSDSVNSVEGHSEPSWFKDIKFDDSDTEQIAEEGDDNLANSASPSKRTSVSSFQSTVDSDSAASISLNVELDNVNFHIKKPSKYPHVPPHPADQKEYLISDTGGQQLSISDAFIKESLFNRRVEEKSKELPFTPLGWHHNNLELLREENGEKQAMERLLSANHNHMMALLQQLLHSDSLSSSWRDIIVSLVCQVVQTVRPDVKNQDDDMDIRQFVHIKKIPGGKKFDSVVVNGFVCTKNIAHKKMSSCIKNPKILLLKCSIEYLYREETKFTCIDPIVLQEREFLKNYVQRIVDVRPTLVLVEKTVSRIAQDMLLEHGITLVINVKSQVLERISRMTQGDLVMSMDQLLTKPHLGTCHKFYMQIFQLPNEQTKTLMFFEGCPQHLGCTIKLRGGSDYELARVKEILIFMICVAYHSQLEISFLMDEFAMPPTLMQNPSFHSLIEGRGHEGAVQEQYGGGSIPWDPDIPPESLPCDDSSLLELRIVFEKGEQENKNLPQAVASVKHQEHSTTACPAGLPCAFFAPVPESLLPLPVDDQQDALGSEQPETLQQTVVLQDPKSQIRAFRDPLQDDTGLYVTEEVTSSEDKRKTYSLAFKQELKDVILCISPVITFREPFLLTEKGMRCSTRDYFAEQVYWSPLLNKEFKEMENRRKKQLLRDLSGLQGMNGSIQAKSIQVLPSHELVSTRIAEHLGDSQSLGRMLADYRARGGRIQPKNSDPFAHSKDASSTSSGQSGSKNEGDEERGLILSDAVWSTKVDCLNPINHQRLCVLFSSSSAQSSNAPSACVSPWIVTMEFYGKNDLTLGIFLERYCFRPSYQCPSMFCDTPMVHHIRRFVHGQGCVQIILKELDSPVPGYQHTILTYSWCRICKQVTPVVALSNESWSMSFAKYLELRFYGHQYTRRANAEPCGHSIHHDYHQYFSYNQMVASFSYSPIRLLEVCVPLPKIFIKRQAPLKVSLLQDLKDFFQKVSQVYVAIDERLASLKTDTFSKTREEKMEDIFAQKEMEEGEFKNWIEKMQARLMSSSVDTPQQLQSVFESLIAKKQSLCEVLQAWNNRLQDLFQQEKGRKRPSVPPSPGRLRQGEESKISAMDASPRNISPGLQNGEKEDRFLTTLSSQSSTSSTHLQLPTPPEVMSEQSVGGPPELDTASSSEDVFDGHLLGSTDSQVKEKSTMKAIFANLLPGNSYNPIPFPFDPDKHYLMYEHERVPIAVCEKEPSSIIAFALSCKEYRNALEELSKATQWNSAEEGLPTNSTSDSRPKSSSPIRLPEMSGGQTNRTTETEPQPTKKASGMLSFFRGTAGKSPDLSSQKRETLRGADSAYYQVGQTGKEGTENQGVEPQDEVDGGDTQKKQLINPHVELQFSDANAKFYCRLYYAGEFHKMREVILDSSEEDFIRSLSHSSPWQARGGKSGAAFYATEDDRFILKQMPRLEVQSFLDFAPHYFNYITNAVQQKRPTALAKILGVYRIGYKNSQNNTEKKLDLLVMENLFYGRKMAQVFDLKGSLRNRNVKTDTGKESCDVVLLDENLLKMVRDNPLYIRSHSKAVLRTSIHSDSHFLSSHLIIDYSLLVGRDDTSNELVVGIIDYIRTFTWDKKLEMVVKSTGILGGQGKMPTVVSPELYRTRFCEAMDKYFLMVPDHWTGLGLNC

Take `Cc1cccc(-c2cnn(-c3nc(N4CCOCC4)c4oc(C(=O)NC5CCCN(C)CC5)cc4n3)c2)c1` (centres unmarked) [Compound 129, N-(1-methylazepan-4-yl)-4-morpholino-2-(4-(m-tolyl)-1H-pyrazol-1-yl)furo[3,2-d]pyrimidine-6-carboxamide]: in assay [1], the IC50 came to 11.8 nM. In addition, in assay [2], the EC50 was determined as 9 nM.
On the same counts, the results for `Cc1cccc(-c2cnn(-c3nc(N4CCOCC4)c4oc(C(=O)NC5CC5)c(C)c4n3)c2)c1` [Compound 127, N-cyclopropyl-7-methyl-4-morpholino-2-(4-(m-tolyl)-1H-pyrazol-1-yl)furo[3,2-d]pyrimidine-6-carboxamide] are 34 nM and 48 nM.
The like results for `Cc1cccc(-c2cnn(-c3nc(N4CCOCC4)c4oc(C(=O)NC5CCCN(C)C5)cc4n3)c2)c1` (centres unmarked) [Compound 123, N-(1-methylpiperidin-3-yl)-4-morpholino-2-(4-(m-tolyl)-1H-pyrazol-1-yl)furo[3,2-d]pyrimidine-6-carboxamide] were, in that order, 3.3 nM and 28.5 nM.
Take `Cc1cccc(-c2cnn(-c3nc(N4CCOCC4)c4oc(C(=O)N[C@@H](C)C5CC5)cc4n3)c2)c1` [Compound 113, (S)-N-(1-cyclopropylethyl)-4-morpholino-2-(4-(m-tolyl)-1H-pyrazol-1-yl)furo[3,2-d]pyrimidine-6-carboxamide]: the IC50 in assay [1] worked out at 0.2 nM. In addition, it took 16 nM to reach a half-maximal effect in assay [2] (EC50).
For the compound `Cc1cccc(-c2cnn(-c3nc(N4CCOCC4)c4oc(C(=O)NCCCCN(C)C)cc4n3)c2)c1` [Compound 110, N-(4-(dimethylamino)butyl)-4-morpholino-2-(4-(m-tolyl)-1H-pyrazol-1-yl)furo[3,2-d]pyrimidine-6-carboxamide], in assay [1], the IC50 was determined as 2.9 nM. This compound yielded a 50% effective concentration (EC50) in assay [2] of 33 nM.
With `Cc1cccc(-c2ccn(-c3nc(N4CCOCC4)c4oc(-c5ccccn5)c(C(F)(F)F)c4n3)n2)c1` [Compound 112, 4-morpholino-6-(pyridin-2-yl)-2-(3-(m-tolyl)-1H-pyrazol-1-yl)-7-(trifluoromethyl) furo[3,2-d]pyrimidine], the IC50 in assay [1] is over 10000 nM. In assay [2], the EC50 stood at 153 nM.
On the same counts, the results for `Cc1cccc(-c2cnn(-c3nc(N4CCOCC4)c4oc(C(=O)NC5CCN(C)C5)cc4n3)c2)c1` (centres unmarked) [Compound 124, N-(1-methylpyrrolidin-3-yl)-4-morpholino-2-(4-(m-tolyl)-1H-pyrazol-1-yl)furo[3,2-d]pyrimidine-6-carboxamide] are 4.7 nM and 48 nM.
On the same counts, the results for `Cc1cccc(-c2ccn(-c3nc(N4CCOCC4)c4oc(C(=O)NCCCN(C)C)cc4n3)n2)c1` [Compound 109, N-(3-(dimethylamino)propyl)-4-morpholino-2-(3-(m-tolyl)-1H-pyrazol-1-yl)furo[3,2-d]pyrimidine-6-carboxamide] are 11.7 nM and 46.5 nM.
In the case of `C[C@H](NC(=O)c1cc2nc(-n3cc(-c4ccccc4)cn3)nc(N3CCOCC3)c2o1)C1CC1` [Compound 114, (S)-N-(1-cyclopropylethyl)-4-morpholino-2-(4-phenyl-1H-pyrazol-1-yl)furo[3,2-d]pyrimidine-6-carboxamide], the IC50 in assay [1] stood at 9.6 nM. Besides, the response in assay [2] was half-maximal at 61 nM (EC50).
Take `O=C(c1cc2nc(Nc3cc(-c4ccccc4)n[nH]3)nc(N3CCOCC3)c2o1)N1CCCCC1` [Compound 55, (4-morpholino-2-((3-phenyl-1H-pyrazol-5-yl)amino)furo[3,2-d]pyrimidin-6-yl)(piperidin-1-yl)methanone hydrochloride]: in assay [1], the IC50 is 51 nM.
On the same count and under the same terms, to `O=C(NC1CC1)c1cc2nc(-n3ccc(-c4ccccc4)n3)nc(N3CCOCC3)c2o1` [Compound 153, N-cyclopropyl-4-morpholino-2-(3-phenylpyrazol-1-yl)furo[3,2-d]pyrimidine-6-carboxamide] belongs 24 nM.
With `CON(C)C(=O)c1cc2nc(Nc3cc(-c4ccccc4)[nH]n3)nc(N3CCOCC3)c2o1` [Compound 139, N-methoxy-N-methyl-4-morpholino-2-((5-phenyl-1H-pyrazol-3-yl)amino)furo[3,2-d]pyrimidine-6-carboxamide], the IC50 in assay [1] came to 22 nM.
The same measure, in the same setting: then `CCNC(=O)c1cc2nc(-n3cc(-c4cccc(C)c4)cn3)nc(N3CC(F)(F)OC(F)(F)C3)c2o1` [Compound 134, N-ethyl-4-(2,2,6,6-tetrafluoromorpholino)-2-(4-(m-tolyl)-1H-pyrazol-1-yl)furo[3,2-d]pyrimidine-6-carboxamide], with over 20000 nM.
On the same count and under the same terms, then `c1cncc(-c2cc3nc(Nc4cc(-c5ccncc5)n[nH]4)nc(N4CCOCC4)c3o2)c1` [Compound 31, 4-morpholino-6-(3-pyridyl)-N-[5-(4-pyridyl)-1H-pyrazol-3-yl]furo[3,2-d]pyrimidin-2-amine, hydrogen chloride], with 369 nM; and `Cc1cccc(-c2cc(Nc3nc(N4CCOCC4)c4occc4n3)[nH]n2)c1` [Compound 8, 4-morpholino-N-[5-(m-tolyl)-1H-pyrazol-3-yl]furo[3,2-d]pyrimidin-2-amine, hydrogen chloride], with 59.5 nM.
On the same count and under the same terms, then `c1ccc(-c2cc(Nc3nc(N4CCOCC4)c4oc(-c5ccncc5)cc4n3)on2)cc1` [Compound 44, 4-morpholino-N-(3-phenylisoxazol-5-yl)-6-(pyridin-4-yl)furo[3,2-d]pyrimidin-2-amine], with 2 nM.
Regarding `Cc1cccc(-c2ccn(-c3nc(N4CCOCC4)c4oc(-c5nccs5)cc4n3)n2)c1` [Compound 203, 4-morpholino-2-[3-(m-tolyl)pyrazol-1-yl]-6-thiazol-2-yl-furo[3,2-d]pyrimidine], the IC50 in assay [1] was 1.9 nM.
Still for that read-out and setting: to `c1ccc(Cc2cc(Nc3nc(N4CCOCC4)c4oc(-c5ccncc5)cc4n3)[nH]n2)cc1` [Compound 73, N-(5-benzyl-1H-pyrazol-3-yl)-4-morpholino-6-(pyridin-4-yl)furo[3,2-d]pyrimidin-2-amine, hydrogen chloride] belongs 141 nM; to `c1cc(-c2cc3nc(Nc4cc(C5CCCC5)n[nH]4)nc(N4CCOCC4)c3o2)ccn1` [Compound 74, N-(5-cyclopentyl-1H-pyrazol-3-yl)-4-morpholino-6-(pyridin-4-yl)furo[3,2-d]pyrimidin-2-amine, hydrogen chloride], 224 nM.
With `CC(=O)NCCn1nc(-c2cc3nc(-n4cc(-c5cccc(C)c5)cn4)nc(N4CCOCC4)c3o2)cc1C` [Compound 197, N-[2-[5-methyl-3-[4-morpholino-2-[4-(m-tolyl)pyrazol-1-yl]furo[3,2-d]pyrimidin-6-yl]pyrazol-1-yl]ethyl]acetamide], in assay [1], the IC50 was 0.7 nM.
The same measure, in the same setting: to `CNC(=O)c1cc2nc(Nc3cc(CC4CC4)n[nH]3)nc(N3CCOCC3)c2o1` [Compound 79, 2-((5-(cyclopropylmethyl)-1H-pyrazol-3-yl)amino)-N-methyl-4-morpholinofuro[3,2-d]pyrimidine-6-carboxamide, hydrogen chloride] belongs at least 10000 nM.
Take `CN1CCN(C(=O)c2cc3nc(Nc4cc(-c5ccccc5)[nH]n4)nc(N4CCOCC4)c3o2)CC1` [Compound 136, (4-methylpiperazin-1-yl)(4-morpholino-2-((5-phenyl-1H-pyrazol-3-yl)amino)furo[3,2-d]pyrimidin-6-yl)methanone]: the IC50 in assay [1] amounted to 94 nM.
For the compound `c1ccc(-n2cc(Nc3nc(N4CCOCC4)c4oc(-c5ccncc5)cc4n3)cn2)cc1` [Compound 49, 4-morpholino-N-(1-phenylpyrazol-4-yl)-6-(4-pyridyl)furo[3,2-d]pyrimidin-2-amine, hydrogen chloride], the IC50 in assay [1] turned out to be 21 nM.
The same measure, in the same setting: then `Cc1cccc(-c2cc(Nc3nc(N4CCOCC4)c4oc(-c5ccccn5)cc4n3)[nH]n2)c1` [Compound 27, 4-morpholino-N-[5-(m-tolyl)-1H-pyrazol-3-yl]-6-(2-pyridyl)furo[3,2-d]pyrimidin-2-amine, hydrogen chloride], with 1 nM; and `O=C(NCC1CC1)c1cc2nc(-n3ccc(-c4ccccc4)n3)nc(N3CCOCC3)c2o1` [Compound 166, N-(cyclopropylmethyl)-4-morpholino-2-(3-phenylpyrazol-1-yl)furo[3,2-d]pyrimidine-6-carboxamide], with 220 nM; and `Cc1cccc(-c2ccn(-c3nc(N4CCOCC4=O)c4oc(-c5ccccn5)cc4n3)n2)c1` [Compound 148], with 3860 nM.

Usually IC50 stands for the concentration at which inhibition is half-maximal. As usually defined, the EC50 is the concentration giving half of the maximal effect.
